Reference: paper PMC11249646, “Small-Molecule Disruptors of the Interaction between Calcium- and Integrin-Binding Protein 1 and Integrin αIIbβ3 as Novel Antiplatelet Agents” (ACS Pharmacology & Translational Science, 2024)
Read-outs that look alike come from different tables or passages of the source.

Tests used:
[1] = biological target: T1, GST-CIB1 : F-scrambled peptide (Homo sapiens, UniProt Q99828); assay: FP scrambled-peptide counter screen, 1536-well format; assay type: binding; settings: for Curve Class (counterscreen) / COUNTERSCREEN Curve Class: qHTS curve class
T1 construct: made in house; host or cells: BL-21 plus RIL cells (E. coli)
T1 sequence (Q99828 1-191): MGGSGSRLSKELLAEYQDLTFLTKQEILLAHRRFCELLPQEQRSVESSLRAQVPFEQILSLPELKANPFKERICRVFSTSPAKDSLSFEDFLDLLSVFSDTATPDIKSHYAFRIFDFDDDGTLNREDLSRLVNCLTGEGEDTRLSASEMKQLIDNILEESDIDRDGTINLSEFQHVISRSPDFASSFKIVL

[2] = biological target: T2, CIB1 and αIIb interaction (CIB1-GST : F-αIIb peptide) (Homo sapiens, UniProt Q99828); assay: FP assay, 1536-well qHTS format (primary and confirmatory screen); assay type: binding; settings: for Curve Class (confirmatory screen) / CONFIRMATORY SCREEN Curve Class: qHTS curve class
T2 construct: made in house; host or cells: BL-21 plus RIL cells (E. coli)
T2 sequence (Q99828 1-191): T1 sequence (Q99828 1-191)

[3] = Table S3, counterscreen, a negative sign marks inhibitory curves
[4] = Table S3, counterscreen, negative = inhibition
[5] = Table S3, counterscreen, read-out: IC50 [μM] (counterscreen)
[6] = Table S3, confirmatory screen, YES/NO call
[7] = Table S3, confirmatory screen, a negative sign marks inhibitory curves
[8] = Table S3, confirmatory screen, negative = inhibition
[9] = Table S3, confirmatory screen, read-out: IC50 [μM] (confirmatory screen)
[10] = qHTS primary screen hits, Table S2, negative = inhibition
[11] = qHTS primary screen hits, Table S2, negative sign = inhibitory curve, several classes where COUNT > 1
[12] = qHTS primary screen hits, Table S2, read-out: IC50
[13] = counterscreen, negative sign = inhibitory curve
[14] = counterscreen, read-out: IC50 [μM] (counterscreen)
[15] = confirmatory screen, negative sign = inhibitory curve
[16] = confirmatory screen, read-out: IC50 [μM] (confirmatory screen)
[17] = qHTS primary screen hits, Table S2, negative sign = inhibitory curve
[18] = scrambled-peptide counterscreen
[19] = scrambled-peptide counterscreen, YES/NO call
[20] = confirmatory screen, YES/NO call
[21] = confirmatory screen, negative = inhibition
[22] = confirmatory screen, read-out: CONFIRMATORY SCREEN IC50
[23] = qHTS FP screen hits, Table S2, negative = inhibition
[24] = qHTS FP screen hits, Table S2, one class per curve where COUNT > 1, negative sign = inhibitory curve
[25] = qHTS FP screen hits, Table S2, read-out: IC50

Row | SMILES | Efficacy (%) (counterscreen) [1, 4] | IC50 [1, 5] | Curve Class (confirmatory screen) [2, 7] | Efficacy (%) (confirmatory screen) [2, 8] | Efficacy (%) [2, 10] | Curve Class [2, 11] | IC50 [2, 12] | other results
1 | CC(O)C(=O)O.CCOc1ccc2nc3cc(N)ccc3c(N)c2c1.O [NCGC00096056-02] | -204% | 31.6 µM | -2.1 | -162% | -129% | -2.1 | 44.7 µM | Curve Class (counterscreen) [1, 3]: -2.1; Confirm? (confirmatory screen) [2, 6]: YES; IC50 [2, 9]: 25.1 µM
2 | O=C1OC(c2ccc(O)c(S(=O)(=O)[O-])c2)(c2ccc(O)c(S(=O)(=O)[O-])c2)c2c(Br)c(Br)c(Br)c(Br)c21.[Na+].[Na+] [NCGC00159391-03] | 31% | 50.1 µM | 4 | -20% | -32% | -1.4 | 15.8 µM | 
3 | O=C([O-])c1c(Cl)c(Cl)c(Cl)c(Cl)c1-c1c2cc(I)c(=O)c(I)c-2oc2c(I)c(O)c(I)cc12.[Na+] [NCGC00159508-05] | 311% | 44.7 µM |  | 261% | -26% | -2.4 | 13.6 µM | 
4 | OCc1ccc(-c2ccc(-c3ccc(CO)s3)o2)s1 [NCGC00159570-01] | 97% | 50.1 µM | 2.4 | 58% | -57% | -3 | 34.1 µM | 
5 | CC(C)Oc1cccc(NC(=O)c2ccccc2C(F)(F)F)c1 [NCGC00160537-04] | -39% | 39.8 µM |  |  |  |  | 100 µM | Confirm? (counterscreen) ([1]; Table S3, counterscreen, YES/NO call): YES
6 | O=[N+]([O-])c1ccc(O)c2ncccc12 [NCGC00160664-03] |  |  |  |  | -25% | -1.4 | 31.6 µM | COUNTERSCREEN Efficacy (%) ([1]; counterscreen): -13%; COUNTERSCREEN Curve Class ([1]; counterscreen): 4; CONFIRMATORY SCREEN Efficacy (%) ([2]; confirmatory screen): 0%; CONFIRMATORY SCREEN Curve Class ([2]; confirmatory screen): 4
7 | COc1cccc2nc(-c3cccs3)nc(NN3C(=O)C=C(C)C3=O)c12 [NCGC00161703-02] |  |  |  |  | -24% |  | 3 µM | Efficacy (%) (counterscreen) ([1]; counterscreen): -30%; Curve Class (counterscreen) [1, 13]: -1.4; IC50 [1, 14]: 17.8 µM; Efficacy (%) (confirmatory screen) ([2]; confirmatory screen): -63%; Confirm? (confirmatory screen) ([2]; confirmatory screen, YES/NO): YES; Curve Class (confirmatory screen) [2, 15]: -1.4; IC50 [2, 16]: 8.9 µM; Curve Class [2, 17]: -1.4
8 | CO[C@H](C(=O)[C@@H](O)[C@@H](C)O)[C@@H]1Cc2cc3cc(C[C@H]4C[C@H](O[C@H]5C[C@@H](O)[C@H](O)[C@@H](C)O5)[C@@H](O)[C@@H](C)O4)c(C)c(O)c3c(O)c2C(=O)[C@H]1O[C@@H]1C[C@H](O[C@@H]2C[C@H](O[C@@H]3C[C@](O)(CO)[C@@H](O)[C@H](C)O3)[C@@H](O)[C@H](C)O2)[C@@H](O)[C@H](C)O1 [NCGC00162423-04] | -181% | 15.8 µM | -2.1 | -183% | -51% | -2.2 | 24.1 µM | Curve Class (counterscreen) [1, 3]: -1.1; Confirm? (confirmatory screen) [2, 6]: YES; IC50 [2, 9]: 31.6 µM
9 | Cc1ccc(C(=O)Nc2ccc(S(=O)(=O)O)c3cc(S(=O)(=O)O)cc(S(=O)(=O)O)c23)cc1NC(=O)c1cccc(NC(=O)Nc2cccc(C(=O)Nc3cc(C(=O)Nc4ccc(S(=O)(=O)O)c5cc(S(=O)(=O)O)cc(S(=O)(=O)O)c45)ccc3C)c2)c1 [NCGC00163318-03] |  |  |  |  | -22% |  | 0.7 µM | COUNTERSCREEN Efficacy (%) [1, 18]: 16%; COUNTERSCREEN Confirm? [1, 19]: YES; COUNTERSCREEN Curve Class [1, 18]: 4; CONFIRMATORY SCREEN Confirm? [2, 20]: YES; CONFIRMATORY SCREEN Curve Class [2, 15]: -1.4; CONFIRMATORY SCREEN Efficacy (%) [2, 21]: -15%; IC50 [2, 22]: 7.9 µM; Curve Class [2, 17]: -1.4
10 | CO[C@@]12[C@H](COC(N)=O)C3=C(C(=O)C(C)=C(N)C3=O)N1C[C@@H]1N[C@@H]12 [NCGC00163468-05] | 95% | 39.8 µM | 4 | -31% | -38% | -1.2 | 25.1 µM | Curve Class (counterscreen) [1, 3]: 3
11 | COC[C@H]1OC(=O)c2coc3c2[C@@]1(C)C1=C(C3=O)[C@@H]2CCC(=O)[C@@]2(C)C[C@H]1OC(C)=O [NCGC00163485-03] |  |  |  |  |  |  |  | Efficacy (%) (counterscreen) ([1]; counterscreen): -20%; Confirm? (counterscreen) ([1]; counterscreen, YES/NO): YES; Curve Class (counterscreen) [1, 13]: 4; IC50 [2, 16]: 28.2 µM
12 | O=C1c2cccc(O)c2C(=O)c2c(O)cc(CO)cc21 [NCGC00163510-03] | -8% |  | 4 | -18% |  |  |  | Curve Class (counterscreen) [1, 3]: 4; Efficacy (%) [2, 23]: -33%; Curve Class [2, 24]: -1.2; IC50 [2, 25]: 9.6 µM
13 | C[C@H]1COC2=C1C(=O)C(=O)c1c2ccc2c1CCCC2(C)C [NCGC00163650-02] |  |  |  |  | -26% | -2.4 | 30.4 µM | COUNTERSCREEN Efficacy (%) ([1]; counterscreen): -18%; COUNTERSCREEN Curve Class ([1]; counterscreen): 4; CONFIRMATORY SCREEN Efficacy (%) ([2]; confirmatory screen): 0%; CONFIRMATORY SCREEN Curve Class ([2]; confirmatory screen): 4
14 | O=c1oc2ccccc2c(O)c1C(CC(O)c1ccc(-c2ccc(Br)cc2)cc1)c1ccccc1 (stereo not shown) [NCGC00163939-02] |  |  |  |  | -58% | -2.2 | 79.4 µM | COUNTERSCREEN Efficacy (%) [1, 18]: 109%; COUNTERSCREEN Confirm? [1, 19]: YES; COUNTERSCREEN Curve Class [1, 18]: 3; IC50 ([1]; scrambled-peptide counterscreen, read-out: COUNTERSCREEN IC50): 89.1 µM; CONFIRMATORY SCREEN Confirm? [2, 20]: YES; CONFIRMATORY SCREEN Curve Class [2, 15]: -1.2; CONFIRMATORY SCREEN Efficacy (%) [2, 21]: -37%; IC50 [2, 22]: 12.6 µM
15 | O=C(O)Cc1ccc(CCNS(=O)(=O)c2ccc(Cl)cc2)cc1 [NCGC00165787-03] |  |  |  |  |  |  |  | COUNTERSCREEN Efficacy (%) ([1]; counterscreen): 0%; COUNTERSCREEN Curve Class ([1]; counterscreen): 4; CONFIRMATORY SCREEN Efficacy (%) ([2]; confirmatory screen): 14%; CONFIRMATORY SCREEN Curve Class ([2]; confirmatory screen): 4; Efficacy (%) [2, 23]: -61%; Curve Class [2, 24]: -2.2; IC50 [2, 25]: 79.4 µM
16 | Cc1cc(C(C#N)c2ccc(Cl)cc2)c(Cl)cc1NC(=O)c1cc(I)cc(I)c1O (stereo not shown) [NCGC00166312-02] | 117% | 31.6 µM | 4 | -32% |  |  |  | IC50 ([2]; IC50 [μM], qHTS FP screen hits, Table S2): 27 µM; Efficacy (%) [2, 23]: -35%
17 | O=C1Nc2cc(Cl)ccc2Nc2cscc21 [NCGC00167991-01] |  |  |  |  | -66% | -2.2 | 79.4 µM | Efficacy (%) (counterscreen) ([1]; counterscreen): -57%; Curve Class (counterscreen) [1, 13]: -3; IC50 [1, 14]: 50.1 µM; Efficacy (%) (confirmatory screen) ([2]; confirmatory screen): -75%; Confirm? (confirmatory screen) ([2]; confirmatory screen, YES/NO): YES; Curve Class (confirmatory screen) [2, 15]: -3
